Assay results published in patent US20040186021A1, “Substituted benzo-nitro-heterocycles” (priority 2001, published 2004).

Key:
[1] = logP determination by HPLC (reversed-phase column C 18), EC Directive 79/831 Annex V.A8; type: physicochemical; settings: for chromatographic logP: reversed-phase HPLC column (C 18), at pH=2; for logP a): acetonitrile, 43° C.
Procedure: LogP values given in Table 1 were determined in accordance with EC Directive 79/831 Annex V.A8 by HPLC (High Performance Liquid Chromatography) using a reversed-phase column (C 18). Temperature: 43° C. (a) Mobile phases for the determination in the acidic range: 0.1% aqueous phosphoric acid, acetonitrile; linear gradient from 10% acetonitrile to 90% acetonitrile—the corresponding measurement results in Table 1 are marked ^a). (b) Mobile phases for the determination in the neutral range: 0.01 molar aqueous phosphate buffer solution, acetonitrile; linear gradient from 10% acetonitrile to 90% acetonitrile—the corresponding measurement results in Table 1 are marked ^b). Calibration was carried out using unbranched alkan-2-ones (having 3 to 16 carbon atoms) with known logP values (determination of the logP values by the retention times using linear interpolation between two successive alkanones).

[2] = tested on: weeds; test: Pre-emergence test (Example A); type: in vivo; settings: soil sprayed 24 hours after sowing, rated after three weeks
Procedure: Pre-Emergence Test [table] To produce a suitable preparation of active compound, one part by weight of active compound is mixed with the stated amount of solvent, the stated amount of emulsifier is added and the concentrate is diluted with water to the desired concentration. Seeds of the test plants are sown in normal soil. After 24 hours, the soil is sprayed with the preparation of active compounds such that the particular amount of active compound desired is applied per unit area. The concentration of active compound in the spray liquor is chosen such that the particular amount of active compound desired is applied in 1000 litres of water per hectare. After three weeks, the degree of damage to the plants is rated in % damage in comparison to the development of untreated control. The figures denote: 0%=no effect (like untreated control) 100%=total destruction

[3] = tested on: weeds; test: Post-emergence test (Example B); type: in vivo; settings: test plants of 5-15 cm sprayed, rated after three weeks
Procedure: To produce a suitable preparation of active compound, one part by weight of active compound is mixed with the stated amount of solvent, the stated amount of emulsifier is added and the concentrate is diluted with water to the desired concentration.
Test plants of a height of 5-15 cm are sprayed with the preparation of active compounds such that the particular amounts of active compounds desired are applied per unit area. The concentration of the spray liquor is chosen such that the particular amounts of active compounds desired are applied in 1000 l of water/ha.
After three weeks, the degree of damage to the plants is rated in % damage in comparison to the development of the untreated control.
0%=no effect (like untreated control)

[4] = Table 1; a) acidic range: 0.1% aqueous phosphoric acid
[5] = Table 2, compounds of formula (II); a) acidic range: 0.1% aqueous phosphoric acid

| SMILES | action against weeds (degree of damage to the plants) [2] | action against weeds (degree of damage to the plants) [3] | logP a) [1, 4] | other results |
| --- | --- | --- | --- | --- |
| O=c1[nH]c2cc(-n3c(=O)cc(C(F)(F)F)[nH]c3=O)c(F)cc2s1 [3-(6-fluoro-2,3-dihydro-2-oxo-1,3-benzothiazol-5-yl)-6-trifluoromethyl-2,4(1H,3H)-pyrimidinedione] |  |  |  | chromatographic logP [1]: 1.48 |
| CCOC(=O)CN1C(=O)COc2ccc(-n3c(=O)cc(C(F)(F)F)n(N)c3=O)cc21 [Example 1, ethyl 6-(3-amino-3,6-dihydro-2,6-dioxo-4-trifluoromethyl-1 (2H)-pyrimidynyl)-2,3-dihydro-3-oxo-4H-1,4-benzoxazine-4-acetate] | very strong action against weeds | very strong action against weeds |  | chromatographic logP [1]: 1.9 |
| CCOC(=O)n1c(=O)sc2cc(F)c(-n3c(=O)cc(C(F)(F)F)n(N)c3=O)cc21 [Example 2, ethyl 5-(3-amino-3,6-dihydro-2,6-dioxo-4-trifluoromethyl-1(2H)-pyrimidynyl)-6-fluoro-2-oxo-3(2H)-benzothiazole carboxylate] |  |  |  | chromatographic logP [1]: 2.44 |
| CS(=O)(=O)n1c(=O)sc2cc(F)c(-n3c(=O)cc(C(F)(F)F)n(N)c3=O)cc21 [Example 3, 1-amino-3-(6-fluoro-2,3-dihydro-3-methylsulphonyl-2-oxo-5-benzothiazolyl)-6-trifluoromethyl-2,4(1H,3H)-pyrimidinedione] |  |  |  | chromatographic logP [1]: 2.16 |
| N#CCn1c(=O)sc2cc(F)c(-n3c(=O)cc(C(F)(F)F)n(N)c3=O)cc21 [Example 4] |  |  | 1.97^a) |  |
| N#CCN1C(=O)COc2cc(F)c(-n3c(=O)cc(C(F)(F)F)n(N)c3=O)cc21 [Example 5] | very strong action against weeds | very strong action against weeds | 1.83^a) |  |
| N#CCN1C(=O)COc2ccc(-n3c(=O)cc(C(F)(F)F)n(N)c3=O)cc21 [Example 6] | very strong action against weeds | very strong action against weeds | 1.57^a) |  |
| COC(=O)CN1C(=O)COc2cc(F)c(-n3c(=O)cc(C(F)(F)F)n(N)c3=O)cc21 [Example 7] | very strong action against weeds | very strong action against weeds | 1.90^a) |  |
| CCOC(=O)CN1C(=O)COc2cc(F)c(-n3c(=O)cc(C(F)(F)F)n(N)c3=O)cc21 [Example 8] | very strong action against weeds | very strong action against weeds | 2.14^a) |  |
| CC(C)(C)OC(=O)CN1C(=O)COc2cc(F)c(-n3c(=O)cc(C(F)(F)F)n(N)c3=O)cc21 [Example 9] | very strong action against weeds | very strong action against weeds | 2.60^a) |  |
| CC(C)OC(=O)CN1C(=O)COc2cc(F)c(-n3c(=O)cc(C(F)(F)F)n(N)c3=O)cc21 [Example 10] | very strong action against weeds | very strong action against weeds | 2.38^a) |  |
| COC(=O)CN1C(=O)COc2ccc(-n3c(=O)cc(C(F)(F)F)n(N)c3=O)cc21 [Example 11] | very strong action against weeds | very strong action against weeds |  |  |
| CC(C)OC(=O)CN1C(=O)COc2ccc(-n3c(=O)cc(C(F)(F)F)n(N)c3=O)cc21 [Example 12] | very strong action against weeds | very strong action against weeds | 2.14^a) |  |
| CC(C)(C)OC(=O)CN1C(=O)COc2ccc(-n3c(=O)cc(C(F)(F)F)n(N)c3=O)cc21 [Example 13] |  |  | 2.37^a) |  |
| CC(=O)n1c(=O)sc2cc(F)c(-n3c(=O)cc(C(F)(F)F)n(N)c3=O)cc21 [Example 14] |  |  | 2.36^a) |  |
| COC(=O)C=C(CCl)n1c(=O)sc2cc(F)c(-n3c(=O)cc(C(F)(F)F)n(N)c3=O)cc21 [Example 22] |  |  | 2.46^a) |  |
| CC(C)COC(=O)n1c(=O)sc2cc(F)c(-n3c(=O)cc(C(F)(F)F)n(N)c3=O)cc21 [Example 23] |  |  | 3.17^a) |  |
| CCOC(=O)C=C(n1c(=O)sc2cc(F)c(-n3c(=O)cc(C(F)(F)F)n(N)c3=O)cc21)C(F)(F)F [Example 24] |  |  | 2.98^a) |  |
| CCOC(=O)C=CCn1c(=O)sc2cc(F)c(-n3c(=O)cc(C(F)(F)F)n(N)c3=O)cc21 [Example 25] |  |  | 2.51^a) |  |
| N#Cn1c(=O)sc2cc(F)c(-n3c(=O)cc(C(F)(F)F)n(N)c3=O)cc21 [Example 30] |  |  | 2.19^a) |  |
| Nn1c(C(F)(F)F)cc(=O)n(-c2cc3[nH]c(=O)sc3cc2F)c1=O [II-1, 1-amino-3-(6-fluoro-2,3-dihydro-2-oxo-1,3-benzothiazol-5-yl)-6-trifluoromethyl-2,4(1H,3H)-pyrimidinedione] |  |  |  | chromatographic logP [1]: 1.66 |
| Nn1c(C(F)(F)F)cc(=O)n(-c2ccc3c(c2)NC(=O)CO3)c1=O [II-2] |  |  |  | logP a) [1, 5]: logP = 1.22^a) |
| Nn1c(C(F)(F)F)cc(=O)n(-c2cc3c(cc2F)OCC(=O)N3)c1=O [II-3] |  |  |  | logP a) [1, 5]: logP = 1.57^a) |
